In patent publication US20240124460A1, “METHODS AND COMPOSITIONS FOR TARGETED PROTEIN DEGRADATION” (Ranok Therapeutics (Hangzhou) Co. Ltd., priority 2020, published 2024):

Key:
[1] = test system: A549 human lung carcinoma; experiment: A549 CCK-8 proliferation assay; assay type: cell-based; conditions: A549 cells, 72 hr
Description: (§1) The following cancer cell lines were employed: A549 human lung carcinoma (ATCC, #CCL-185); BT-474 human breast carcinoma (ATCC, #HTB-20); MDA-MB-231 human breast adenocarcinoma (ATCC, #CRM−HTB-26); MDA-MB-468 human breast adenocarcinoma (ATCC, #HTB-132); MV-4-11 human acute myeloid leukemia (ATCC, #CRL-9591); and U-87 MG human glioblastoma (ATCC, #HTB-14). Cell lines were cultured essentially according to ATCC recommendations.
(§2) 3-fold serial dilutions of each test compound were prepared ranging from 20 μM to 1.02 nM.
(§3) % Inhibition=100−(D−B)/(S−B)*100%. • S: Absorbance of cells treated with DMSO • D: Absorbance of compound-treated cells • B: Absorbance of medium with DMSO without cells

HSP90α protein [2] = molecular target: T1, HSP90α protein (Homo sapiens, UniProt P07900); experiment: HSP90α-binding FP (BODIPY) assay; conditions: FP competition with BODIPY-labeled RNK04010
T1 construct: purchased BPS Bioscience #50298
Procedure, shortened: (§4)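 Fluorescence polarization measured competition with N-terminal human HSP90α, using either FITC-geldanamycin or BODIPY-labelled triazolone RNK04010 as tracer (5 nM final each). Compounds were tested in 2.5-fold dilutions from 20 μM to 5.2 nM, with incubation at 25 °C for 120 min (FITC) or 300 min (BODIPY).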

ERBB2 = ERBB2 (HER2) flow cytometry protein degradation assay in BT-474 cells; assay type: cell-based, human; conditions: DC50, BT-474 cells, 24 hr
Procedure, shortened: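 BT-474 cells trypsinised after compound treatment and stained with PE-conjugated anti-ERBB2 antibody, 30 min at 25° C in the dark, then fixed in 1% paraformaldehyde for flow cytometry. % inhibition = 100−(D−B)/(S−B)*100, using treated, untreated-stained and unstained cell fluorescence.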

[3] = test system: MDA-MB-468 human breast adenocarcinoma; experiment: MDA-MB-468 CCK-8 proliferation assay; assay type: cell-based; conditions: MDA-MB-468 cells, 72 hr
Description: as §1, §2, §3

[4] = test system: MDA-MB-231 human breast adenocarcinoma; experiment: MDA-MB-231 CCK-8 proliferation assay; assay type: cell-based; conditions: MDA-MB-231 cells, 72 hr
Description: as §1, §2, §3

[5] = test system: MV-4-11 human acute myeloid leukemia; experiment: MV-4-11 CCK-8 proliferation assay; assay type: cell-based; conditions: Homo sapiens, MV4-11; MV-4-11 cells, 72 hr
Procedure, shortened: (§5)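 Lines were maintained according to ATCC guidance. Compounds were then applied as a 3-fold titration from 20 μM to 1.02 nM, and proliferation was measured by CCK-8 absorbance, normalised to DMSO controls minus a no-cell blank.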

MAPK7 [6] = molecular target: T2, MAPK7 (Homo sapiens, UniProt Q13164); experiment: MAPK7 Western blot protein degradation assay in U-87 MG cells; assay type: cell-based; parameters: U-87 MG human glioblastoma cells, which express MAPK7; endogenous in cells; host or cells: U-87 MG; conditions: 48 hr
Procedure, shortened: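 U-87 MG glioblastoma cells treated with compounds at various concentrations for 48 h at 37 °C. MAPK7 (ERK5) levels in protein-normalized lysates measured by Western blot with β-actin as loading reference, quantified by fluorescence imaging.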

HSP90α protein [7] = molecular target: T1, HSP90α protein; experiment: HSP90α-binding FP (FITC) assay; conditions: FP competition with FITC-geldanamycin
Procedure, shortened: as §4

[8] = test system: U-87 MG human glioblastoma; experiment: U87 MG CCK-8 proliferation assay; assay type: cell-based; conditions: Homo sapiens, U-87 MG, 72 h, U-87 MG cells, read-out: U87MG CCK-8
Procedure, shortened: as §5

MAPK7 [9] = molecular target: T2, MAPK7; experiment: MAPK7 kinase assay (ADP-Glo); assay type: biochemical; parameters: purchased Carna Biosciences #04-146; conditions: ATP 340 μM
Procedure, shortened: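 Recombinant human MAPK7 (20 nM) with 0.1 mg/ml myelin basic protein and 340 μM ATP; compounds in 3-fold dilutions from 50 μM to 2.54 nM. ADP formation read by ADP-Glo luminescence, scaled between 0.5% DMSO and 10 μM XMD17-109 controls.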

T2 sequence (Q13164 whole entry): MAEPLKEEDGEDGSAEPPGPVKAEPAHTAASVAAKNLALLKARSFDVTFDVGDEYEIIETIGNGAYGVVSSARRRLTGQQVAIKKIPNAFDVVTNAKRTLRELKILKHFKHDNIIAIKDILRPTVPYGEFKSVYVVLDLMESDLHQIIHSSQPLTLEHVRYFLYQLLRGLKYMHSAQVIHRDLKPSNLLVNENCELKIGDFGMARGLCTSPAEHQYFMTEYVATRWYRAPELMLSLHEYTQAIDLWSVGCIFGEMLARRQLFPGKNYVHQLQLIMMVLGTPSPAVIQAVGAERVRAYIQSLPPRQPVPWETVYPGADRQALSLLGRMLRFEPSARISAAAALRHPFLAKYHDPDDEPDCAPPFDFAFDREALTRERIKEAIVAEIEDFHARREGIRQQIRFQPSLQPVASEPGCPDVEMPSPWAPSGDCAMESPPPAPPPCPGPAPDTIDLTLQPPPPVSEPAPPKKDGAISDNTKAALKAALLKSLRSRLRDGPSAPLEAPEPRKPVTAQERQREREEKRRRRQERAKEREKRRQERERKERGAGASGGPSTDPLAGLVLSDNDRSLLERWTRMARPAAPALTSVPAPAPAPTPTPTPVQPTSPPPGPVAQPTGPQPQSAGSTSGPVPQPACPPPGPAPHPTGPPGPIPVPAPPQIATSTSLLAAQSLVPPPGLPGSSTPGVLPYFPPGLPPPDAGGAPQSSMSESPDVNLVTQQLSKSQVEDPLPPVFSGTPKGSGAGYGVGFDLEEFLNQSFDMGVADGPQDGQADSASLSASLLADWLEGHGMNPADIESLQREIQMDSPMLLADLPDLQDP

| EC50 [1] | IC50 (HSP90α protein [2]) | EC50 [3] | EC50 [4] | EC50 [5] | MAPK7 degradation (30 nM) (MAPK7 [6]; 30 nM) | MAPK7 degradation (100 nM) (MAPK7 [6]; 100 nM) | MAPK7 degradation (1000 nM) (MAPK7 [6]; 1000 nM) | IC50 (HSP90α protein [7]) | EC50 [8] | IC50 (MAPK7 [9]) | Structure (SMILES) | ERBB2 degradation (ERBB2) |
| --- | --- | --- | --- | --- | --- | --- | --- | --- | --- | --- | --- | --- |
| 100 to 1000 nM | 100 to 1000 nM | < 100 nM | < 100 nM | < 100 nM | C (< 33% degradation) | C (< 33% degradation) | A (>66% degradation) | 100 to 1000 nM | < 100 nM |  | CCOc1cc(N2CCC(C(=O)N3CCC(N4CCN(Cc5ccc(-n6c(O)nnc6-c6cc(C(C)C)c(O)cc6O)cc5)CC4)CC3)CC2)ccc1Nc1ncc2c(n1)N(C)c1ccccc1C(=O)N2C [Compound 004, 2-((4-(4-(4-(4-(4-(3-(2,4-dihydroxy-5-isopropylphenyl)-5-hydroxy-4H-1,2,4-triazol-4-yl)benzyl)piperazin-1-yl)piperidine-1-carbonyl)piperidin-1-yl)-2-ethoxyphenyl)amino)-5,11-dimethyl-5H-benzo[e]pyrimido[5,4-b][1,4]diazepin-6(11H)-one] | B (DC50 = 100-1000 nM) |
| > 1000 nM | > 1000 nM | > 1000 nM | > 1000 nM | > 1000 nM |  |  |  |  | > 1000 nM | > 1000 nM | CCOc1cc(N2CCC(C(=O)N3CCC(CN4CCN(Cc5ccc(-n6c(O)nnc6-c6cc(C(C)C)c(O)cc6OC)cc5)CC4)CC3)CC2)ccc1Nc1ncc2c(n1)N(C)c1ccccc1C(=O)N2C [Compound 052, 2-((2-ethoxy-4-(4-(4-((4-(4-(3-hydroxy-5-(4-hydroxy-5-isopropyl-2-methoxyphenyl)-4H-1,2,4-triazol-4-yl)benzyl)piperazin-1-yl)methyl)piperidine-1-carbonyl)piperidin-1-yl)phenyl)amino)-5,11-dimethyl-5,11-dihydro-6H-benzo[e]pyrimido[5,4-b][1,4]diazepin-6-one] | C (DC50 > 1000 nM) |
